Measurements taken from patent publication US7279494B2, “Antimicrobial [3.1.0] bicyclohexylphenyl-oxazolidinone derivatives and analogues” (Pfizer Inc., priority 2003, dated 2007).
In brackets after ≈: the same amount, converted by molar mass. Like-named read-outs stand apart in the source and are kept apart here.

Experiments:
Format in all cases: cell-based
H. influenzae 30063 = assay: MIC by standard agar dilution, H. influenzae 30063
From the text: (§1) The in vitro activity of compounds of the subject invention may be assessed by standard testing procedures such as the determination of minimum inhibitory concentration (MIC) by agar dilution as described in “Approved Standard. Methods for Dilution Antimicrobial Susceptibility Tests for Bacteria that Grow Aerobically,” 3rd ed., published 1993 by the National Committee for Clinical Laboratory standards, Villanova, Pa., USA.
(§2) The in vitro MICs of test compounds may be determined by a standard agar dilution method. A stock drug solution of each analog is prepared in a preferred solvent, usually DMSO:H2O (1:3). Serial 2-fold dilutions of each sample are made using 1.0 mL aliquots of sterile distilled water. To each 1.0 mL aliquot of drug is added 9 mL of molten Mueller Hinton agar medium. The drug-supplemented agar is mixed, poured into 15×100 mm petri dishes, and allowed to solidify and dry prior to inoculation.
(§3) Vials of each of the test organisms are maintained frozen in the vapor phase of a liquid nitrogen freezer. Test cultures are grown overnight at 35° C. on the medium appropriate for the organism. Colonies are harvested with a sterile swab, and cell suspensions are prepared in Trypticase Soy broth (TSB) to equal the turbidity of a 0.5 McFarland standard. A 1:20 dilution of each suspension is made in TSB. The plates containing the drug supplemented agar are inoculated with a 0.001 mL drop of the cell suspension using a Steers replicator, yielding approximately 10^4 to 10^5 cells per spot. The plates are incubated overnight at 35° C.
(§4) Following incubation the Minimum Inhibitory Concentration (MIC μg/mL), the lowest concentration of drug that inhibits visible growth of the organism, is read and recorded.

S. pneumoniae UC9912 = assay: MIC by standard agar dilution, S. pneumoniae UC9912; details: Streptococcus pneumoniae, UC9912, Mueller Hinton agar, incubated overnight at 35° C.
From the text: as §1, §2, §3, §4

S. aureus UC9213 = assay: MIC by standard agar dilution, S. aureus UC9213; details: Staphylococcus aureus, UC9213, Mueller Hinton agar, incubated overnight at 35° C.
From the text: as §1, §2, §3, §4

[1] = Haemophilus influenzae, 30063, agar dilution, Mueller Hinton agar, incubated overnight at 35° C., read-out: H. influenzae 30063 MIC

Row | SMILES | MIC (H. influenzae 30063; [1]) [µg/mL] | H. influenzae 30063 MIC (H. influenzae 30063; agar dilution, Mueller Hinton agar, incubated overnight at 35° C.) [µg/mL] | MIC (S. pneumoniae UC9912) [µg/mL] | MIC (S. aureus UC9213) [µg/mL] | MIC (H. influenzae 30063; Haemophilus influenzae, 30063, read-out: H. influenzae 30063 MIC) [µg/mL]
1 | NC(=O)[C@H]1CN(c2ccc([C@H]3[C@@H]4CS(=O)(=O)C[C@@H]43)c(F)c2)C(=O)O1 [Example 20, (5R)-3-{4-[exo-(1R,5S)-3,3-dioxido-3-thiabicyclo[3.1.0]hex-6-yl]-3-fluorophenyl}-2-oxo-1,3-oxazolidine-5-carboxamide] | > 64 | >64 | 2 (≈ 5.64 µM) | 2 (≈ 5.64 µM) | –
2 | CCC(=O)NC[C@H]1CN(c2ccc([C@H]3[C@@H]4CNC[C@@H]43)c(F)c2)C(=O)O1 [Example 21, N-[((5S)-3-{4-[exo-(1R,5S)-3-azabicyclo[3.1.0]hex-6-yl]-3-fluorophenyl}-2-oxo-1,3-oxazolidin-5-yl)methyl]proyanamide] | 8 (≈ 23 µM) | – | 1 (≈ 2.88 µM) | 4 (≈ 11.5 µM) | –
3 | CCC(=O)NC[C@H]1CN(c2ccc([C@H]3[C@@H]4CN(C=O)C[C@@H]43)c(F)c2)C(=O)O1 [Example 22, N-[((5S)-3-{3-fluoro-4-[exo-(1R,5S)-3-formyl-3-azabicyclo[3.1.0]hex-6-yl]phenyl}-2-oxo-1,3-oxazolidin-5-yl)methyl]propanamide] | 8 (≈ 21.3 µM) | – | 0.5 (≈ 1.33 µM) | 1 (≈ 2.66 µM) | –
4 | CCC(=O)NC[C@H]1CN(c2ccc([C@H]3[C@@H]4CN(C(N)=O)C[C@@H]43)c(F)c2)C(=O)O1 [Example 23, exo-(1R,5S)-6-(4-{(5S)-5-[(propanoylamino)methyl]-2-oxo-1,3-oxazolidin-3-yl}-2-fluorophenyl)-3-azabicyclo[3.1.0]hexane-3-carboxamide] | 4 (≈ 10.2 µM) | – | 0.25 (≈ 0.64 µM) | 1 (≈ 2.56 µM) | –
5 | CCC(=O)NC[C@H]1CN(c2ccc([C@H]3[C@@H]4CN(C(=O)NC)C[C@@H]43)c(F)c2)C(=O)O1 [Example 24, exo-(1R,5S)-6-(4-{(5S)-5-[(propanoylamino)methyl]-2-oxo-1,3-oxazolidin-3-yl]-2-fluorophenyl)-3-azabicyclo[3.1.0]hexane-3-methylcarboxamide] | 16 (≈ 39.6 µM) | – | 2 (≈ 4.95 µM) | 4 (≈ 9.89 µM) | –
6 | CCNC(=O)N1C[C@@H]2[C@H](C1)[C@H]2c1ccc(N2C[C@H](CNC(=O)CC)OC2=O)cc1F [Example 25, exo-(1R,5S)-6-(4-{(5S)-5-[(propanoylamino)methyl]-2-oxo-1,3-oxazolidin-3-yl}-2-fluorophenyl)-3-azabicyclo[3.1.0]hexane-3-ethylcarboxamide] | 32 (≈ 76.5 µM) | – | 4 (≈ 9.56 µM) | 8 (≈ 19.1 µM) | –
7 | CCC(=O)NC[C@H]1CN(c2ccc([C@H]3[C@@H]4CN(C(=O)CO)C[C@@H]43)c(F)c2)C(=O)O1 [Example 26, N-[((5S)-3-{3-fluoro-4-[exo-(1R,5S)-3-glycoloyl-3-azabicyclo[3.1.0]hex-6-yl]phenyl}-2-oxo-1,3-oxazolidin-5-yl)methyl]propanamide] | 4 (≈ 9.87 µM) | – | 0.5 (≈ 1.23 µM) | 1 (≈ 2.47 µM) | –
8 | CCC(=O)NC[C@H]1CN(c2ccc([C@H]3[C@@H]4CN(C(=O)COC)C[C@@H]43)c(F)c2)C(=O)O1 [Example 27, N-[((5S)-3-{3-fluoro-4-[exo-(1R,5S)-3-methoxyacetyl-3-azabicyclo[3.1.0]hex-6-yl]phenayl}-2-oxo-1,3-oxazolidin-5-yl)methyl]propanamide] | 8 (≈ 19.1 µM) | – | 0.5 (≈ 1.19 µM) | 2 (≈ 4.77 µM) | –
9 | CCC(=O)NC[C@H]1CN(c2ccc([C@H]3[C@@H]4CN(C(=O)[C@@H](O)CO)C[C@@H]43)c(F)c2)C(=O)O1 [Example 28, N-[((5S)-3-{3-fluoro-4-[exo-(1R,5S)-3-((2S)-2,3-dihydroxypropanoyl)-3-azabicyclo[3.1.0]hex-6-yl]phenyl}-2-oxo-1,3-oxazolidin-5-yl)methyl]propanamide] | 8 (≈ 18.4 µM) | – | 4 (≈ 9.19 µM) | 4 (≈ 9.19 µM) | –
10 | CC(=O)NC[C@H]1CN(c2ccc([C@H]3[C@@H]4CN(C(=O)C(F)F)C[C@@H]43)c(F)c2)C(=O)O1 [Example 34, N-[((5S)-3-{3-fluoro-4-[exo-(1R,5S)-3-difluoroacetyl-3-azabicyclo[3.1.0]hex-6-yl]phenyl}-2-oxo-1,3-oxazolidin-5-yl)methyl]acetamide] | – | – | 1 (≈ 2.43 µM) | 2 (≈ 4.86 µM) | 8 (≈ 19.4 µM)

Second part, led by results:

Row | MIC (H. influenzae 30063; [1]) [µg/mL] | H. influenzae 30063 MIC (H. influenzae 30063; agar dilution, Mueller Hinton agar, incubated overnight at 35° C.) [µg/mL] | MIC (S. pneumoniae UC9912) [µg/mL] | MIC (S. aureus UC9213) [µg/mL] | SMILES | MIC (H. influenzae 30063; Haemophilus influenzae, 30063, read-out: H. influenzae 30063 MIC) [µg/mL]
11 | 16 (≈ 39.5 µM) | – | 2 (≈ 4.93 µM) | 4 (≈ 9.87 µM) | CC(=O)NC[C@H]1CN(c2ccc([C@H]3[C@@H]4CN(C(=O)[C@H](C)O)C[C@@H]43)c(F)c2)C(=O)O1 [Example 29, N-[((5S)-3-{3-fluoro-4-[exo-(1R, 5S)-3-(2-(S)-hydroxypropanoyl)-3-azabicyclo[3.1.0]hex-6-yl]phenyl}-2-oxo-1,3-oxazolidin-5-yl)methyl]acetamide] | –
12 | 16 (≈ 39.9 µM) | – | 4 (≈ 9.96 µM) | 4 (≈ 9.96 µM) | CC(=O)NC[C@H]1CN(c2ccc([C@H]3[C@@H]4CN(C(=O)C5CC5)C[C@@H]43)c(F)c2)C(=O)O1 [Example 30, N-[((5S)-3-{3-fluoro-4-[exo-(1R,5S)-3-cyclopropanecarbonyl-3-azabicyclo[3.1.0]hex-6-yl]phenyl}-2-oxo-1,3-oxazolidin-5-yl)methyl]acetamide] | –
13 | 16 (≈ 38.3 µM) | – | 2 (≈ 4.79 µM) | 2 (≈ 4.79 µM) | CC(=O)NC[C@H]1CN(c2ccc([C@H]3[C@@H]4CN(C(=O)C5(O)CC5)C[C@@H]43)c(F)c2)C(=O)O1 [Example 31, N-[((5 S)-3-{3-fluoro-4-[exo-(1R,5S)-3-(1-hydroxy-cyclopropanecarbonyl)-3-azabicyclo[3.1.0]hex-6-yl]phenyl}-2-oxo-1,3-oxazolidin-5-yl)methyl]acetamide] | –
14 | 8 (≈ 19.1 µM) | – | 0.5 (≈ 1.19 µM) | 2 (≈ 4.77 µM) | CC(=O)NC[C@H]1CN(c2ccc([C@H]3[C@@H]4CN(C(=O)C(C)(C)O)C[C@@H]43)c(F)c2)C(=O)O1 [Example 32, N-[((5S)-3-{3-fluoro-4-[exo-(1R,5S)-3-(2-hydroxy-2-methyl-propanoyl)-3-azabicyclo[3.1.0]hex-6-yl]phenyl}-2-oxo-1,3-oxazolidin-5-yl)methyl]acetamide] | –
15 | 16 (≈ 34.8 µM) | – | 2 (≈ 4.35 µM) | 2 (≈ 4.35 µM) | CC(=O)NC[C@H]1CN(c2ccc([C@H]3[C@@H]4CN(C(=O)[C@@H](O)C(F)(F)F)C[C@@H]43)c(F)c2)C(=O)O1 [Example 33, N-[((5S)-3-{3-fluoro-4-[exo-(1R,5S)-3-(3,3,3-trifluoro-2-(S)-hydroxypropanoyl)-3-azabicyclo[3.1.0]hex-6-yl]phenyl}-2-oxo-1,3-oxazolidin-5-yl)methyl]acetamide] | –
16 | 16 (≈ 41 µM) | – | 2 (≈ 5.12 µM) | 8 (≈ 20.5 µM) | CC(=O)NC[C@H]1CN(c2ccc([C@H]3[C@@H]4CN(C(=O)CN)C[C@@H]43)c(F)c2)C(=O)O1 [Example 35, N-[((5S)-3-{3-fluoro-4-[exo-(1R,5S)-3-aminoacetyl-3-azabicyclo[3.1.0]hex-6-yl]phenyl}-2-oxo-1,3-oxazolidin-5-yl)methyl]acetamide] | –
17 | 32 (≈ 74 µM) | – | 4 (≈ 9.25 µM) | 8 (≈ 18.5 µM) | CC(=O)NCC(=O)N1C[C@@H]2[C@H](C1)[C@H]2c1ccc(N2C[C@H](CNC(C)=O)OC2=O)cc1F [Example 36, N-[((5S)-3-{3-fluoro-4-[exo-(1R,5S)-3-acetylaminoacetyl-3-azabicyclo[3.1.0]hex-6-yl]phenyl}-2-oxo-1,3-oxazolidin-5-yl)methyl]acetamide] | –
18 | 8 (≈ 18.7 µM) | – | 0.5 (≈ 1.17 µM) | 1 (≈ 2.33 µM) | CC(=O)NC[C@H]1CN(c2ccc([C@H]3[C@@H]4CN(C(=O)c5ccno5)C[C@@H]43)c(F)c2)C(=O)O1 [Example 37, N-[((5S)-3-{3-fluoro-4-[exo-(1R,5S)-3-(isoxazole-5-carbonyl)-3-azabicyclo[3.1.0]hex-6-yl]phenyl}-2-oxo-1,3-oxazolidin-5-yl)methyl]acetamide] | –
